Data set [1] has as its system C57Bl/6 mice primary cell culture. As to the kind of experiment: Trypan blue cell viability assay, protection against H2O2-induced cell death. In kind it is cell-based. Conditions: for protective action against the damages produced by H2O2 in terms of cell viability: 50 μM H2O2 plus 1 μM peptide, compared to negative control (H2O2). The protocol: The protective effects of ghrelin splice variant against induced cell death, cell viability, of C57Bl/6 mice primary cell culture, was analysed by trypan blue assay, an indirect method based on the dye exclusion of live cells with intact cell membrane.
Cells were treated with 50 μM H2O2 to induce cell damages and death. The neuroprotective effect of ghrelin splice variant was tested by treating the cells with either H2O2 plus 1 μM ghrelin splice variant, H2O2 plus 1 μM ghrelin or H2O2 plus both peptides. Controls samples were untreated cells.

The subject of data set [2] is SNpc DA neurons. Briefly: Patch clamp (whole-cell current clamp) recordings of action potentials in brain slices, bath application. In kind it is cell-based, mice. To be noted: 1 μM. The protocol: Brain slices preparation: Brain slices (300 µm) containing the SN, will be cut on a vibratome from 4-6 week old males (n=10 per group). Briefly, animals will be anesthetized with Nembutal (80 mg/kg) and then decapitated. The brains will be rapidly removed and immersed in cold […] oxygenated bath solution (containing (mM): NaCl 150, KCl 2.5, CaCl2 2, MgCl2 2 Hepes 10, and glucose […] with NaOH). After being trimmed to contain only the SN, slices will be transferred to a recording chamber where they are constantly perfused with bath solution at 2 ml/min. DA neurons in the SN are identified by presence of a large Ih current (>100 pA) evoked by hyperpolarizing voltage steps from −50 to −120 mV for 2 s (22). This approach identifies dopaminergic cells with >90% accuracy. In brain slices, whole-cell current clamp will be used to observe spontaneous action potentials. Slices will be maintained at 330 C and perfused continuously with ASCF (bubbled with 5% CO2 and 95% O2) containing (in mM): NaCl, 124; KCl, 3; CaCl2, 2; MgCl2, 2; NaH2PO4, 1.23; NaHCO3, 26; glucose, 10; pH 7.4 with NaOH. Ghrelin Splice Variant will be applied to the recording chamber via bath application.The pipette solution containes (mM): Gluconic Acid 140, CaCl2, MgCl2 2, EGTA 1, HEPES 10, Mg-ATP 4, and Na2-GTP 0.5, pH 7.3 with KOH. To further explore the mechanism of Ghrelin Splice Variant-mediated effect on action potentials in DA neurons, we will analyze the effect of Ghrelin Splice Variant on action potential frequency either in the presence of ionotropic glutamate receptor antagonists CNQX (10 µM) and APS (50 µM) in all solutions, or in the presence of bicuculine (30 µM; to block diminish GABA effects) in all solutions. Analysis: All data will be sampled at 3-10 kHz and […] at 1-3 kHz with an Apple Macintosh computer using Axograph 4.9 (Axon Instruments). Electrophysiological data will be analyzed with Axograph 4.9 (Axon Instruments) and plotted with Igor Pro software (WaveMetrics, Lake Oswego, Oreg., USA). To complement, the electron microscopic measurements of synapses, we will also analyze mEPSC and mIPSC of SN DA neurons. Mice (C57BL/J6; n=10) between the ages of 4-6 weeks of age will be injected with Ghrelin Splice Variant (30 μg in 0.3 ml) or vehicle ip at 09:00 hrs. Two hours later, animals will be sacrificed under neinbutal anesthesia and their brains collected as described above. For the recording of mEPSCs and IPSCs, SN DA cells will be patched with pipettes with a tip resistance of 4-6 MΩ and partially compensated by the amplifier. The pipette will be filled with a solution containing the following (mM): KMeSO, 145 (mEPSC) or KCL, 145 (mIPSC); MgCl2, 2; HEPES, 10; Mg-ATP, 2.; Nat-GTP, 0.3; and KOH to adjust pH to 7.3. mEPSC recordings will be achieved under the prescence of TTX and bicucullin, whereas mIPSC will be monitored under the presence of TTX, AP5 and CNQX. The frequency and amplitude of mEPSC and IPSC will be recorded as described previously. Differences in the frequency of mEPSCs and mIPSCs of DA cells from Ghrelin Splice Variant and saline treated animals will be compared using unpaired t-tests with the critical level set at α=0.05). […] N=number of cells recorded.
On the technique in general: The patch-clamp technique gives a direct electrical read-out from membranes.

The subject of another data set is SN DA neurons. Briefly: mEPSC and mIPSC recordings of SN DA neurons after treatment of WT mice. To be noted: compared with saline control, n=6 cells. In kind it is in vivo. The protocol:
Brain slices preparation: Brain slices (300 µm) containing the SN, will be cut on a vibratome from 4-6 week old males (n=10 per group). Briefly, animals will be anesthetized with Nembutal (80 mg/kg) and then decapitated. The brains will be rapidly removed and immersed in cold […] oxygenated bath solution (containing (mM): NaCl 150, KCl 2.5, CaCl2 2, MgCl2 2 Hepes 10, and glucose […] with NaOH). After being trimmed to contain only the SN, slices will be transferred to a recording chamber where they are constantly perfused with bath solution at 2 ml/min. DA neurons in the SN are identified by presence of a large Ih current (>100 pA) evoked by hyperpolarizing voltage steps from −50 to −120 mV for 2 s (22). This approach identifies dopaminergic cells with >90% accuracy. […] Electrophysiological data will be analyzed with Axograph 4.9 (Axon Instruments) and plotted with Igor Pro software (WaveMetrics, Lake Oswego, Oreg., USA). […] The pipette will be filled with a solution containing the following (mM): KMeSO, 145 (mEPSC) or KCL, 145 (mIPSC); MgCl2, 2; HEPES, 10; Mg-ATP, 2.; Nat-GTP, 0.3; and KOH to adjust pH to 7.3. mEPSC recordings will be achieved under the prescence of TTX and bicucullin, whereas mIPSC will be monitored under the presence of TTX, AP5 and CNQX. The frequency and amplitude of mEPSC and IPSC will be recorded as described previously. […] N=number of cells recorded.

The test system of data set [3] is SNpc DA neurons. Briefly: mEPSC recordings in GHSR1a knockout mice and their WT littermates. To be noted: 1 μM, in presence of TTX and bicuculline. In kind it is cell-based.
Another data set concerns MPTP-mice. As to the kind of experiment: MPTP mouse model of Parkinson's disease. In kind it is in vivo. To be noted: 10 nmol once-a-day, day -7 to day 10 after MPTP. The protocol: In the MPTP model, the bilateral dopaminergic neuronal death of the substantia nigra and dopamine depletion of the striatum is created by i.p. injection of MPTP. Experimental groups:
• Group 1: 10 Sham-mice treated with vehicle (10 ml/kg) once-a-day starting day-7 and continuing until the end of the study day 10 • Group 2: 10 MPTP-mice treated with vehicle (10 ml/kg) once-a-day starting day-7 and continuing until the end of the study day 10 • Group 3: 10 MPTP-mice treated with Ghrelin SplicVariant (10 nmol) once-a-day starting day-7 and continuing until the end of the study day 10 Ghrelin Splice Variant or vehicle was administered once-a-day immediately before the dark phase, and […] were removed overnight starting seven days prior to MPTP challenge and continued until end-point day 10 after MPTP. Striatal levels of dopamine (DA), […] (DOPAC) and homovanillic acid (HVA) are evaluated 10 days after the injection of MPTP with HPLC. In addition, the selective damage to dopaminergic neurons in the SNc is evaluated with tyrosine hydroxylase (TH) immunoreactivity. Food intake and body weight were monitored daily in all mice administered Ghrelin Splice Variant.

The test system of the next data set is growth hormone. As to the kind of experiment: GH release after subcutaneous bolus injection (growth hormone ELISA). In kind it is in vivo, mice. Conditions: 20 μg subcutaneous bolus; 10 minutes after administration. The protocol:
Acylated ghrelin splice variants (20 μg) or the Vehicle (1.6% mannitol) were administered by a subcutaneous bolus injection (Corresponding to 0.3 μmol/kg) to 5 mice each. Blood was sampled 10 and 20 min after injection. Serum samples were stored at −70° C. and analyzed by the RAT/MOUSE GROWTH HORMONE ELISA KIT 96-Well Plate (Cat. EZRMGH-45K) (Millipore Corporation, Billerica, Mass., USA). Results: The serum […] growth hormone concentration 10 minutes after subcutaneous administration of acylated ghrelin splice variant or the Vehicle was 2-14-fold higher in the ghrelin splice variant group in comparison to the vehicle group.
For orientation: An ELISA detects its analyte on a solid surface through an enzyme-linked reagent.

Data set [4] is described as follows: Pharmacokinetics after subcutaneous administration, plasma LC/MS/MS. In kind it is in vivo, Sprague-Dawley rats. To be noted: Sprague-Dawley, rat; for half-life: across dose groups; for AUC / AUC(0-inf): SC; for AUC: high dose (10 mg/kg). The protocol:
Subcutaneous administration of ghrelin splice variants was performed at three dose levels of 0.5, 2.5 and 10 mg/kg corresponding to concentrations of 0.1, 0.5 and 2 mg/ml, respectively, and at a constant volume dosage of 5 ml/kg. Intravenous injection was performed at one dose level of 0.5 mg/kg corresponding to a concentration of 0.1 mg/ml and a constant volume dosage of 5 ml/kg as well. The study comprised 9 male and 9 female Sprague-Dawley™ (SD™) rats per dose level and route of administration.
Bleeding sampling design was confined to 9 bleeding time points for each dose level: pre-dosing, 5, 15, 30, 60 and 90 min, 3, 5 and 24 hrs, post-dosing. Each group was divided into 3 sub-groups, each being assigned 3 specific bleeding time points, in order to receive 3 individual samples/time point/group (total of 27 individual samples/group). […] Whole blood samples were kept on ice from the time of blood collection until the time of centrifugation. The obtained plasma samples were flash frozen in liquid nitrogen and kept on dry ice until removal to −70° C.
Concentrations of the Test Item in plasma were determined by LC/MS/MS (liquid chromatography/mass spectrometry/mass spectrometry). Pharmacokinetic analysis of Ghrelin Splice Variant was based on mean plasma concentration time profiles for each dose group as obtained by Non-compartmental Pharmacokinetic analysis, generated by the use of the computer software: “PK Solutions 2.0” (Summit Research Services, Colo., USA).

The conditions of data set [5]: cited from earlier work.
Where [6] appears, read: listed as Ghrelin splice variant.

“Also recorded” adds a separate entry of the source. Where a SMILES comes first, the peptide text is derived from it. Where no end group is shown, it is not given here. The star is where a group is joined. Octanoyl = CCCCCCCC(=O)*

On to `CCCCCCCC(=O)OC[C@H](NC(=O)[C@H](CO)NC(=O)CN)C(=O)N[C@@H](Cc1ccccc1)C(=O)N[C@@H](CC(C)C)C(=O)N[C@@H](CO)C(=O)N1CCC[C@H]1C(=O)N[C@@H](CCC(=O)O)C(=O)N[C@@H](Cc1c[nH]cn1)C(=O)N[C@@H](CCC(N)=O)C(=O)N[C@@H](CCCNC(=N)N)C(=O)N[C@H](C(=O)N[C@@H](CCC(N)=O)C(=O)N[C@H](C(=O)N[C@@H](CCCNC(=N)N)C(=O)N1CCC[C@H]1C(=O)N1CCC[C@H]1C(=O)N[C@@H](Cc1c[nH]cn1)C(=O)N[C@@H](CCCCN)C(=O)N[C@@H](C)C(=O)N1CCC[C@H]1C(=O)N[C@@H](Cc1c[nH]cn1)C(=O)O)C(C)C)C(C)C` [Ghrelin Splice Variant] (H-GSS(Octanoyl)FLSPEHQRVQVRPPHKAPH-OH), for which the “protective action against the damages produced by H2O2 in terms of cell viability” value in data set [1] (setting [6]) was “effective protective action”; in data set [1] (listed as ghrelin splice variant) it was “statistically significant effective protective action; also recorded: greater than ghrelin treatment”. Besides, the results for the action potential firing result in the data set with SNpc DA neurons [2] and with SNpc DA neurons [2] (setting [6]) were “increment in AP firing” and “increment in action potential firing”, respectively. Further, the depolarization result in the data set with SNpc DA neurons [2] is “about 10 mV”. The “duration of effect after washout” value in the data set on SNpc DA neurons [2] was 20 min; with SNpc DA neurons [2] (setting [6]), “at least 20 minutes”. The “frequency of mEPSCs” value with SN DA neurons came to 67.2 ± 3.1. In the data set on SN DA neurons, the “frequency of mIPSCs” value was 60.5 ± 8.9. Besides, the mEPSC frequency in the data set with SNpc DA neurons [3] (GHSR1a knockout mice, n=9 cells) was 27.3+/−2.8 per min; in the data set with SNpc DA neurons [3] (WT animals, n=31 cells), 98.1+/−24.7 per min. Moreover, the “MPTP-induced nigrostriatal DA damage (loss of DA neurons)” value with MPTP-mice is recorded as “attenuates MPTP-induced nigrostriatal PA damage”. In the data set on MPTP-mice, the “cumulative weight gain / recovery after MPTP treatment” value is listed as “managed to recover after the MPTP treatment”. Also, the “serum and brain growth hormone concentration in comparison to the vehicle group” value with growth hormone is 2-14 fold. The half-life lay within 10.7 to 28.9 min in data set [4] (subcutaneous, female rats) and 17.4 to 26.4 min in data set [4] (subcutaneous, male rats). Moreover, in data set [4] (both sexes, subcutaneous, post-dosing, all dose groups), the Tmax is 5 min. The AUC in data set [4] (female, females) is 818 ng·h/mL; in data set [4] (male, males), 1320 ng·h/mL. Moreover, the AUC(0-inf) in data set [4] (female, low dose (0.5 mg/kg), females) was 86.7 ng·h/mL; in data set [4] (female, mid dose (2.5 mg/kg), females) it was 347 ng·h/mL; in data set [4] (male, low dose (0.5 mg/kg), males) it was 102 ng·h/mL; in data set [4] (male, mid dose (2.5 mg/kg), males), 313 ng·h/mL.

In data set [1] (50 μM H2O2 alone), `OO` [H2O2, reference compound] came in with a cell survival of 50%.

In the case of “Ghrelin: 28 amino acid peptide bearing an n-octanoyl side chain on the third serine (GSS(Octanoyl)FLSPEHQRVQQRKESKKPPAKLQPR; UniProt Q9UBU3 24-51, looked up) [reference compound]”, the “protective action against the damages produced by H2O2 in terms of cell viability” value is “statistically significant” in data set [1] and “statistically significant effective protective action” in data set [1] (listed as ghrelin). In data set [5] (infusion for 90 minutes, cancer cachexia patients), the “increase of food intake” value is reported as 30%. In data set [5] (subcutaneous injection of 3.6 nmol/kg prior to a meal), the “increase of energy intake” value was 27%.

The half-life is how long it takes for the measured level to halve. A low value points to rapid decline. Broadly, the Tmax is the time at which the peak concentration occurs. As usually defined, the AUC is the area under the concentration-time curve, a measure of exposure. High values mean more exposure, low ones less exposure. For orientation: AUC(0-inf) means the area under the concentration-time curve extrapolated to infinity. Read a low AUC(0-inf) as low exposure.

The values are drawn from patent publication US10526383B2, “Ghrelin splice variant for treating neuronal damage, neurodegenerative disease, parkinsons disease, alzheimers disease, and/or depression” (priority 2013, dated 2020).
